Assay results taken from patent publication US11638716B2, “Compounds, compositions, and methods for the treatment of disease” (F-star Therapeutics, Inc., priority 2017, dated 2023).

Legend:
IRF = assay: In vitro induction of IRF in THP1 dual cells (Lucia reporter, ISG54 promoter); format: cell-based
Procedure: (§1) Example 2. In Vitro Induction of IRF and NF-κβ in THP1 Cells
(§2) THP1 dual cells grown in complete media were treated with various concentrations of a compound of the present disclosure or DMSO control. Dual cells carry both secreted embryonic alkaline phosphatase (SEAP) reporter gene under the control of an IFN-β minimal promoter fused to five copies of the NF-kB consensus transcriptional response element to measure NF-kB activity and Lucia reporter gene under the control of an ISG54 minimal promoter to measure IRF activity. After 20 h incubation, IRF activity was assessed using QUANTI-luc to measure levels of Lucia and NF-kB activity was determined by measure SEAP levels at 620-655 nm. % induction was calculated from fold change in luminescence/absorbance compared to DMSO treated sample. […] EC50 values were generated by curve fit in Xlfit.
(§3) Cells grown in complete media were treated with various concentrations of a compound of the disclosure or DMSO control. Dual cells carry both secreted embryonic alkaline phosphatase (SEAP) reporter gene under the control of an IFN-β minimal promoter fused to five copies of the NF-kB consensus transcriptional response element to measure NF-kB activity and Lucia reporter gene under the control of an ISG54 minimal promoter to measure IRF activity. After 20 h incubation, IRF activity was assessed using QUANTI-luc to measure levels of Lucia and NF-kB activity was determined by measure SEAP levels at 620-655 nm. % induction was calculated from fold change in luminescence/absorbance compared to DMSO treated sample. EC50 values are generated by curve fit in Xlfit.

[1] = tested on: peripheral blood mononuclear cells (PBMCs); assay: IFNb and TNFa secretion by freshly isolated PBMCs (ELISA); format: cell-based, human; details: 20 hours
Procedure: (§4) FIG. 25 depicts freshly isolated peripheral blood mononuclear cells (PBMCs) treated with a range of concentrations of compound 3 or DMSO control for 20 hours. Supernatants were collected to measure IFNb and TNFa secretion by Verikine-Human IFN beta Serum ELISA kit and Human TNF Alpha ELISA kit respectively. The amount of cytokine releases into supernatant was calculated by a standard curve. Compound 3 induces IFNβ and TNFα secretion in PBMCs after treatment.
as §4, with “29” for “25”, “PBMCs that were” for “peripheral blood mononuclear cells (PBMCs)”, “4” for “3”

[2] = tested on: CT26 murine colon carcinoma; assay: CT26 murine colon carcinoma model in female BALB/c mice; format: in vivo, mouse
Procedure: Example 4: Study to Determine the Efficacy of Compound 4 in a CT26 Murine Colon Carcinoma Model Using Female BALB/c Mice
The animals were fed ad libitum water (reverse osmosis, 1 ppm Cl) and a NIH 31 Modified and Irradiated Lab Diet consisting of 18.0% crude protein, 5.0% crude fat, and 5.0% crude fiber.
CT26 murine colon carcinoma cells were grown in RPMI-1640 medium containing 10% fetal bovine serum, 2 mM glutamine, 100 units/mL penicillin G sodium, 100 μg/mL streptomycin sulfate, and 25 μg/mL gentamicin. The cells were cultured in tissue culture flasks in a humidified incubator at 37° C., in an atmosphere of 5% CO2 and 95% air.
On the day of implantation, cultured CT26 cells were harvested during log phase growth and resuspended in phosphate buffered saline, pH 7.4 (PBS) at a concentration of 3×10^6 cells/mL. Each mouse was injected subcutaneously in the right flank with 3×10^5 tumor cells (0.1 mL cell suspension) and tumors were monitored as their volumes approached the target range of 80 to 120 mm^3. Eleven days after tumor cell implantation, on Day 1 of the study, animals were sorted into three groups (n=8/group) with individual tumor volumes of 63 to 126 mm^3, and a group mean tumor volume of 105 mm^3. Tumors were measured with a caliper twice weekly for the duration of the study. Tumor size was calculated using the formula:
[formula] wherein w is width and 1 is length, in mm, of a tumor. Tumor weight may be estimated with the assumption that 1 mg is equivalent to 1 mm^3 of tumor volume. Test Articles
Compound 4 was dissolved by adding the appropriate volume of sterile saline (vehicle) into each tube, vortexing, incubating at 37° C. for 2-5 minutes, followed by sonication, if needed. […] A fresh vial was prepared on each day of dosing.
On Day 1 of the study, three groups of BALB/c mice (n=8) began dosing according to the protocol in FIG. 20. Compound 4 and vehicle were administered intravenously (i.v.). Group 1 received vehicle on Days 1, 5, 9, and 14. Groups 2 and 3 received CMD 4 at 1 and 3 mg/kg, respectively, on Days 1, 5, 9, and 14.
The study endpoint was a tumor volume of 2000 mm^3 or Day 30, whichever came first. The study ended on Day 29. The study protocol specified a tumor growth delay assay based on the median time-to-endpoint (TTE) in a treated group versus the control group. Tumors were measured using calipers twice per week, and each animal was euthanized for tumor progression (TP) when its tumor reached the 2000 mm^3 volume endpoint. The TTE for each mouse was calculated with the following equation:
[formula] where b is the intercept and m is the slope of the line obtained by linear regression of a log-transformed tumor growth data set. The data set is comprised of the first observation that exceeded the study endpoint volume and the three consecutive observations that immediately preceded the attainment of the endpoint volume. […] In instances in which the log-transformed calculated TTE preceded the day prior to reaching endpoint or exceeded the day of reaching tumor volume endpoint, a linear interpolation was performed to approximate TTE.
On Day 29, MTV (n) was defined as the median tumor volume of the number of animals, n, that survived to the last day and whose tumors had not reached the volume endpoint. Any animal determined to have died from treatment-related (TR) causes was to be assigned a TTE value equal to the day of death. Any animal that died from non-treatment-related (NTR) causes was to be excluded from the analysis. Treatment outcome was evaluated from tumor growth delay (TGD), which was defined as the increase in the median TTE for a treatment group compared to the control group: TGD=T−C expressed in days, or as a percentage of the median TTE of the control group:
[formula] wherein T is the median TTE for a treatment group and C is the median TTE for the control group. Tumor Growth Inhibition (TGI) Analysis […]

NF-κβ = assay: In vitro induction of NF-κβ in THP1 dual cells (SEAP reporter); format: cell-based
Procedure: as §1, §2, §3

[3] = Homo sapiens, THP-1, 20 h incubation

| EC50 (IRF; [3]) | EC50 (NF-κβ; [3]) | SMILES | IFNβ secretion [1] | TNFα secretion [1] | tumor growth compared to the vehicle ([2]; intravenously at 3 mg/kg) | EC50 (IRF; 20 h incubation) | tumor growth compared to the vehicle ([2]; intravenously at 1 mg/kg and 3 mg/kg) | individual times to endpoint vs vehicle group ([2]; treatment groups 1 and 3 mg/kg i.v.) | tumor growth inhibition compared to the vehicle group ([2]; treatment groups 1 and 3 mg/kg i.v., Days 1, 5, 9, 14, TGI on Day 18) | time to reach the endpoint, longer than vehicle group ([2]; treatment groups 1 and 3 mg/kg i.v., Days 1, 5, 9, 14, endpoint tumor volume 2000 mm^3) | tumor volume distribution on day 18 vs vehicle group ([2]; treatment groups 1 and 3 mg/kg i.v., day 18) | percent of mice remaining (Kaplan-Meier) vs vehicle group ([2]; treatment groups 1 and 3 mg/kg i.v., day 21) | EC50 (NF-κβ; 20 h incubation) |
| --- | --- | --- | --- | --- | --- | --- | --- | --- | --- | --- | --- | --- | --- |
| < 50 nM | > 2000 nM | N.N.Nc1ncnc2c1ncn2[C@@H]1O[C@@H]2COP(=O)(S)O[C@@H]3[C@H](F)[C@@H](COP(=O)(O)O[C@H]2[C@H]1F)O[C@H]3n1ccc(=O)[nH]c1=O (stereo partly drawn) [Compound 3] | induces | induces | Tumor growth was slowed | – | – | – | – | – | – | – | – |
| – | – | CCCCCCCCCCOc1ccc(C(=O)Oc2ccc(CSP3(=O)OC[C@H]4O[C@@H](n5cnc6c(N)ncnc65)[C@H](F)[C@@H]4OP(=O)(O)OC[C@H]4O[C@@H](n5ccc(=O)[nH]c5=O)[C@H](O3)[C@@H]4F)cc2)cc1 (stereo partly drawn) [Compound 4] | induces | induces | – | < 50 nM | Tumor growth was slowed | took longer to reach the endpoint | at least 89% | at least 10 days | significantly smaller tumor volumes | greater percent of mice remaining | < 50 nM |
